Assay results taken from article PMC11312813, “An Optimized Peptide Antagonist of CXCR4 Limits Survival of BCR–ABL1-Transformed Cells in Philadelphia-Chromosome-Positive B-Cell Acute Lymphoblastic Leukemia” (International Journal of Molecular Sciences, 2024).
Where a name gives a salt, the structure may show the parent alone.

How the values were obtained:
CXCR4 [1] = test: CXCL12-driven calcium flux in SupB15 cells; assay type: cell-based; settings: 1 µM, 10 min pre-treatment, 100 ng/mL human CXCL12; n = 3
Experimental: (§1) Ca^2+ signaling was analyzed as described previously. Briefly, SupB15 and 697 cells were collected at 1 × 10^6 cells/treatment and loaded with calcium-sensitive dye Indo-1 AM (#I1223, Invitrogen) and 0.5 mg/mL of pluronic F-127 (#P3000MP, Invitrogen) in their respective media supplemented with 1% FBS at 37 °C for 45 min. Cells were then washed and treated with the inhibitors for 10 min at 37 °C. Baseline signal for calcium was measured for 30 s via flow cytometry, followed by stimulation with 100 ng/mL human CXCL12. The area under the curve (AUC) of each calcium flux plot was determined using FlowJo. The AUC of the water control (solvent for CXCL12) was subtracted from each treatment to obtain the correct estimation of the calcium signal upon CXCL12 stimulation.

CXCR4 [2] = test: Anti-CXCR4 antibody (clone 12G5) competition assay in SupB15 cells; assay type: binding, human; settings: increasing concentrations (1 nM to 10 µM), n = 2–3
Experimental: (§2) An anti-CXCR4 competition assay was conducted as previously described. […] Afterward, the cells were washed to remove unbound inhibitors and antibody, and measured via FACS for the fluorescence signal of the bound antibody. The fluorescence signal corresponding to only antibody (no inhibitor) was considered to be 100% antibody binding.

[3] = system: BCR–ABL1-transformed mouse B cells; test: Cell proliferation assay (cell trace dye dilution); assay type: cell-based; settings: 10 µM, 48 and 72 h; n = 3
Experimental: BCR–ABL1 cells were collected at 0.5 × 10^5 cells/well of a 96-well plate and labeled with cell trace far red cell proliferation dye (#C34564, Invitrogen, Dreieich, Germany), according to the manufacturer’s instructions. Labeled cells were plated in 100 μL of complete media and were mixed with equal volume of 2X DMSO or inhibitor-containing media. A small part of the labeled cells was measured in FACS to determine the fluorescence signal on day 0. After specific time periods (48 and 72 h), cells were collected, washed with FACS buffer, and analyzed using LSR-Fortessa (BD Bioscience).

caspase 3/7 = test: Caspase-Glo 3/7 activation assay in BCR–ABL1 cells; assay type: cell-based, mouse; settings: 10 µM, 24 and 48 h; n = 3
Experimental: (§3) BCR–ABL1 cells were plated at 0.5 × 10^5 cells/well of a 96-well plate in 100 μL of complete media and treated with DMSO or various inhibitors. At specific time points (24, 48 and 72 h), activation of caspases was measured with a Caspase-Glo® 3/7 Assay (#G8090) and Caspase-Glo® 8 Assay (#G8200, Promega, Madison, WI, USA) following the manufacturer’s instructions.

[4] = system: ERK1/2 phosphorylation downstream of CXCR4; test: Western blot, ERK1/2 T202/Y204 phosphorylation in BCR–ABL1 cells; assay type: cell-based; settings: 10 µM, 100 ng/mL mouse CXCL12, 5 min; n = 3
Experimental: BCR–ABL1 cells were collected as 5 × 10^6 cells/500 μL complete media and treated either with DMSO or different inhibitors in the absence and presence of 100 ng/mL mouse CXCL12 for 5, 15, and 30 min at 37 °C. Cells were then immediately transferred onto ice to stop the reaction and washed with ice-cold PBS. Cell extract was prepared by resuspending the cell pellet in 100 μL of radio-immunoprecipitation assay (RIPA) buffer supplemented with 1X protease inhibitor cocktail (#78429, Thermo Fisher), 1 mM sodium orthovanadate (Sigma-Aldrich), and 10 mM beta-glycerophosphate (Sigma-Aldrich). For each treatment, 15 μL of cell extract was mixed with 5 μL of 4X Laemmli buffer (reducing), boiled at 95 °C for 10 min, and run on 10% SDS-PAGE. Gels were wet-transferred to PVDF membranes (Millipore, Burlington, MA, USA) and stained with 0.1% ponceau-S solution to check for efficient blotting. The membranes were blocked with 3% BSA solution and incubated with primary antibodies at 4 °C overnight. The next day, primary antibodies were washed, and membranes were probed with horseradish peroxidase (HRP)-conjugated secondary antibodies at RT for 2 h. After washing, the blots were developed using Immobilon ECL Ultra Western HRP Substrate (#WBULS0500, Millipore), and images were acquired with a Fusion SL gel imaging system (Vilber Lourmat, Eberhardzell, Germany). […]

CXCR4 [5] = test: Anti-CXCR4 antibody (clone L276F12) competition assay in BCR–ABL1-transformed mouse B cells; assay type: binding; settings: 2 h at 4 °C, FACS, n = 3; for Anti-CXCR4 antibody binding to CXCR4: serially diluted 10 µM to 1 nM
Experimental: as §2

[6] = system: BCR–ABL1-transformed mouse B cells; test: Real-time cell growth analysis by IncuCyte (GFP+ cell enrichment); assay type: cell-based; settings: over 96 h
Experimental: A flat-bottom 96-well plate was coated with 0.01% poly-L ornithine (#P4957, Sigma-Aldrich, Hamburg, Germany) for 1 h at room temperature (RT). […] The cells were plated in 100 μL complete medium. […] Plate was prewarmed at 37 °C for 30 min prior to placing in the IncuCyte chamber. Scanning was conducted every two hours for total of 4 days.

CXCR4 [7] = test: CXCL12-driven calcium flux in 697 cells; assay type: cell-based; settings: 1 µM, 10 min pre-treatment, 100 ng/mL human CXCL12; n = 3
Experimental: as §1

[8] = system: BCR–ABL1-transformed mouse B cells; test: Flow cytometric viability analysis (viability dye); assay type: cell-based; parameters: Live gate (viability dye) / Dead gate (viability dye): unit not given here; settings: for Cell viability of BCR–ABL1 cells: 1–72 h, live cell count normalized to DMSO; for Dead gate (viability dye) / Live gate (viability dye): JM#170 10 µM, representative histogram of n = 3
Experimental: (§4) Cells treated with either solvent control DMSO or different concentrations of inhibitors for different time points were collected and washed with ice-cold PBS. […] After washing, labeled cells were resuspended in 100 μL of PBS and acquired using LSR-Fortessa (BD Bioscience, Heidelberg, Germany). FACS data were analyzed with FlowJo software version 10.0.

caspase 8 = test: Caspase-Glo 8 activation assay in BCR–ABL1 cells; assay type: cell-based, mouse; settings: 10 µM; n = 3
Experimental: as §3

CXCR4 [9] = settings: ref [14],[17]; cited from earlier work
SupB15 cells = test: Flow cytometric cell survival analysis, SupB15; assay type: cell-based, human; settings: for SupB15 cell survival vs DMSO: 10 µM, 24–96 h, n = 3; for Dead gate (viability dye) / Live gate (viability dye): JM#170 10 µM, representative histogram of n = 3
Experimental: as §4

Compound: c1cc(CN2CCCNCCNCCCNCC2)ccc1CN1CCCNCCNCCCNCC1 [AMD3100, AMD3100 octahydrochloride hydrate, reference compound]
- CXCL12-induced calcium flux, SupB15 (CXCR4 [1]): completely blocked the calcium flux
- 12G5 antibody binding to CXCR4 (CXCR4 [2]): significantly inhibited 12G5 binding
- Proliferation of BCR–ABL1 cells (dye dilution) vs DMSO [3]: significantly reduced the proliferation
- Caspase 3/7 activation vs DMSO (caspase 3/7): did not induce any caspase activation
- CXCL12-induced ERK1/2 T202/Y204 phosphorylation [4]: this elevation was blocked
- Concentration effective in inhibiting antibody binding to CXCR4 (CXCR4 [5]): ~ 1 μM
- Anti-CXCR4 antibody binding to CXCR4 (CXCR4 [5]): significantly inhibited the antibody binding
- GFP enrichment (BCR–ABL1 cell growth) vs DMSO ([6]; 5 µM): also detectable
- GFP enrichment (BCR–ABL1 cell growth) vs DMSO ([6]; 10 µM, mean ± SEM, n = 4–5): only distinct at later time points
- CXCL12-induced calcium flux, 697 (CXCR4 [7]): completely blocked the calcium flux
- Cell viability of BCR–ABL1 cells ([8]; 10 µM, n = 3): did not induce any loss of cell viability
- Caspase 8 activation vs DMSO (caspase 8): neither JM#170 nor AMD3100 induced caspase 8
- CXCL12-induced calcium signaling (CXCR4 [9]): block the intracellular calcium response
- SupB15 cell survival vs DMSO (SupB15 cells): no effect on SupB15 cell survival

Compound: ILRWSRK * (Pal)-NH2 [JM#170, lipid-conjugated truncated version of EPI-X4, CXCR4 antagonist]
- CXCL12-induced calcium flux, SupB15 (CXCR4 [1]): completely blocked the calcium flux
- 12G5 antibody binding to CXCR4 (CXCR4 [2]): significantly inhibited 12G5 binding
- Proliferation of BCR–ABL1 cells (dye dilution) vs DMSO [3]: no effect on proliferation
- Caspase 3/7 activation vs DMSO (caspase 3/7): significant increase in caspase 3/7 activation
- CXCL12-induced ERK1/2 T202/Y204 phosphorylation [4]: this elevation was blocked
- Concentration effective in inhibiting antibody binding to CXCR4 (CXCR4 [5]): ~ 10 nM
- Anti-CXCR4 antibody binding to CXCR4 (CXCR4 [5]): significantly inhibited the antibody binding
- GFP enrichment (BCR–ABL1 cell growth) vs DMSO ([6]; 10 µM, mean ± SEM, n = 4–5): significant reduction in GFP enrichment
- CXCL12-induced calcium flux, 697 (CXCR4 [7]): completely blocked the calcium flux
- Cell viability of BCR–ABL1 cells ([8]; 10 µM, n = 3): strong and rapid cell death
- Cells dying ([8]; 10 µM, within 1 h of treatment, n = 3): ~ 70%
- Dead gate (viability dye) ([8]; 1 h): 64.5
- Live gate (viability dye) ([8]; 1 h): 35.5
- Dead gate (viability dye) ([8]; 24 h): 85.0
- Live gate (viability dye) ([8]; 24 h): 15.0
- Dead gate (viability dye) ([8]; 48 h): 76.4
- Live gate (viability dye) ([8]; 48 h): 23.6
- Dead gate (viability dye) ([8]; 72 h): 63.6
- Live gate (viability dye) ([8]; 72 h): 36.4
- Caspase 8 activation vs DMSO (caspase 8): neither JM#170 nor AMD3100 induced caspase 8
- CXCL12-induced calcium signaling (CXCR4 [9]): block CXCL12-induced calcium signaling
- SupB15 cell survival vs DMSO (SupB15 cells): significantly reduced SupB15 cell survival
- Dead gate (viability dye) (SupB15 cells; 24 h): 19.0
- Live gate (viability dye) (SupB15 cells; 24 h): 81.0
- Dead gate (viability dye) (SupB15 cells; 72 h): 33.3
- Live gate (viability dye) (SupB15 cells; 72 h): 66.7
- Dead gate (viability dye) (SupB15 cells; 96 h): 41.7
- Live gate (viability dye) (SupB15 cells; 96 h): 58.3
